In PubChem BioAssay (NCI):
Several values for one entry are separate records, joined by “and”; a condition that tells them apart may be missing. Equal values may be shown once.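 48-hour exposure; five concentrations; linearly interpolated endpoints. GI50 = concentration required for 50% inhibition of growth. TGI denotes the concentration required for complete inhibition of growth.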

How the values were obtained:
Test in all cases: growth of human tumour cells (NCI), 48 h
HCT-15 colon = tested on: HCT-15 colon
HOP-62 NSCLC = tested on: HOP-62 NSCLC
COLO 205 colon = tested on: COLO 205 colon
IGROV1 ovarian = tested on: IGROV1 ovarian
SF-539 CNS = tested on: SF-539 CNS
HOP-92 NSCLC = tested on: HOP-92 NSCLC
MOLT-4 leukemia = tested on: MOLT-4 leukemia
NCI-H226 lung = tested on: NCI-H226 lung
A549 NSCLC = tested on: A549 NSCLC
CCRF-CEM leukemia = tested on: CCRF-CEM leukemia

CC(=O)/C(C)=N/NC(=O)c1ccccc1O
GI50 (HCT-15 colon): > 10 µM | TGI (HCT-15 colon): > 100 µM | GI50 (HOP-62 NSCLC): > 100 µM | TGI (HOP-62 NSCLC): > 100 µM | GI50 (COLO 205 colon): > 100 µM | TGI (COLO 205 colon): > 100 µM | GI50 (IGROV1 ovarian): > 10 µM | TGI (IGROV1 ovarian): > 100 µM | TGI (SF-539 CNS): > 10 µM | TGI (HOP-92 NSCLC): > 10 µM | TGI (MOLT-4 leukemia): > 100 µM | GI50 (NCI-H226 lung): > 100 µM | TGI (NCI-H226 lung): > 100 µM | GI50 (A549 NSCLC): > 100 µM | TGI (A549 NSCLC): > 100 µM | TGI (CCRF-CEM leukemia): > 100 µM

CC(=O)CSCc1ccccn1
TGI (HCT-15 colon): > 100 µM | TGI (HOP-62 NSCLC): > 100 µM | TGI (COLO 205 colon): > 100 µM | TGI (IGROV1 ovarian): > 100 µM | TGI (SF-539 CNS): 67.9 µM | TGI (HOP-92 NSCLC): > 100 µM | TGI (MOLT-4 leukemia): 61.4 µM | TGI (NCI-H226 lung): 43.7 µM | TGI (A549 NSCLC): > 100 µM | TGI (CCRF-CEM leukemia): 90.7 µM

C[C@@H]1CC(=O)C2CCCC1C2=O (stereo not given in full)
TGI (HCT-15 colon): > 100 µM | TGI (HOP-62 NSCLC): > 100 µM | TGI (COLO 205 colon): > 100 µM | TGI (IGROV1 ovarian): > 100 µM | TGI (SF-539 CNS): > 100 µM | TGI (HOP-92 NSCLC): > 100 µM | TGI (MOLT-4 leukemia): > 100 µM | TGI (NCI-H226 lung): > 100 µM | TGI (A549 NSCLC): > 100 µM | TGI (CCRF-CEM leukemia): > 100 µM

CC1(C)C(=O)N(CCCCCCN2C(=O)C(C)(C)c3ccccc32)c2ccccc21
TGI (HCT-15 colon): > 100 µM | TGI (HOP-62 NSCLC): > 100 µM | TGI (COLO 205 colon): 55.2 µM | TGI (IGROV1 ovarian): > 100 µM | TGI (SF-539 CNS): > 100 µM | TGI (HOP-92 NSCLC): > 100 µM | TGI (MOLT-4 leukemia): 60 µM | TGI (NCI-H226 lung): 87.2 µM | TGI (A549 NSCLC): > 100 µM | TGI (CCRF-CEM leukemia): 47.5 µM

COc1cccc2c1C(=O)c1c(O)c3c(c(O)c1C2=O)C[C@@](O)(C(C)=O)C[C@@H]3OC1OC(C)C(O)C(N)C1Br (stereo not given in full)
TGI (HCT-15 colon): 0.78 µM | TGI (HOP-62 NSCLC): 0.0785 µM and 0.236 µM | GI50 (COLO 205 colon): 0.219 µM | TGI (COLO 205 colon): 2.99 µM and 1.23 µM | TGI (IGROV1 ovarian): 1.41 µM and 9.05 µM | GI50 (SF-539 CNS): 0.0419 µM | TGI (SF-539 CNS): 0.701 µM and 0.388 µM | GI50 (HOP-92 NSCLC): 0.0602 µM | TGI (HOP-92 NSCLC): 0.422 µM and 0.474 µM | TGI (MOLT-4 leukemia): 0.0266 µM | GI50 (NCI-H226 lung): 0.0134 µM | TGI (NCI-H226 lung): 0.0714 µM and 0.0818 µM | TGI (A549 NSCLC): 0.262 µM | TGI (CCRF-CEM leukemia): 0.07 µM and 0.108 µM

NS(=O)(=O)c1ccc(N=Nc2c(O)[nH]c3ccc(-c4cnco4)cc23)cc1
GI50 (HCT-15 colon): > 25 µM | TGI (HCT-15 colon): > 25 µM | GI50 (HOP-62 NSCLC): > 25 µM | TGI (HOP-62 NSCLC): > 25 µM | GI50 (COLO 205 colon): > 25 µM | TGI (COLO 205 colon): > 25 µM | GI50 (IGROV1 ovarian): > 25 µM | TGI (IGROV1 ovarian): > 25 µM | GI50 (SF-539 CNS): > 25 µM | TGI (SF-539 CNS): > 25 µM | GI50 (HOP-92 NSCLC): > 25 µM | TGI (HOP-92 NSCLC): > 25 µM | GI50 (MOLT-4 leukemia): > 25 µM | TGI (MOLT-4 leukemia): > 25 µM | GI50 (NCI-H226 lung): > 25 µM | TGI (NCI-H226 lung): > 25 µM | GI50 (A549 NSCLC): > 25 µM | TGI (A549 NSCLC): > 25 µM | GI50 (CCRF-CEM leukemia): 14.4 µM | TGI (CCRF-CEM leukemia): > 25 µM

O=C(N/N=C/c1ccccc1)c1c(-c2cccnc2)cnc2ccccc12
TGI (HCT-15 colon): > 100 µM | TGI (HOP-62 NSCLC): > 100 µM | TGI (COLO 205 colon): > 100 µM | TGI (IGROV1 ovarian): > 100 µM | TGI (SF-539 CNS): > 100 µM | TGI (HOP-92 NSCLC): > 100 µM | TGI (MOLT-4 leukemia): > 100 µM | TGI (NCI-H226 lung): > 100 µM | TGI (A549 NSCLC): > 100 µM | TGI (CCRF-CEM leukemia): > 100 µM

COc1ccc(C(=O)C(C(=O)CCC(=O)Nc2cccc(Cl)c2)c2ccc(OC)cc2)cc1 (stereo not given)
TGI (HCT-15 colon): > 100 µM | TGI (HOP-62 NSCLC): > 100 µM | TGI (COLO 205 colon): > 100 µM | TGI (IGROV1 ovarian): > 100 µM | TGI (SF-539 CNS): > 100 µM | TGI (HOP-92 NSCLC): > 100 µM | TGI (MOLT-4 leukemia): > 100 µM | TGI (NCI-H226 lung): > 100 µM | TGI (A549 NSCLC): > 100 µM | TGI (CCRF-CEM leukemia): > 100 µM

COc1ccccc1CCc1cc(OC)c(OC)c(OC)c1
TGI (HCT-15 colon): > 100 µM | TGI (HOP-62 NSCLC): > 100 µM | TGI (COLO 205 colon): > 100 µM | TGI (IGROV1 ovarian): > 100 µM | TGI (SF-539 CNS): > 100 µM | TGI (HOP-92 NSCLC): > 100 µM | TGI (MOLT-4 leukemia): 59.9 µM | TGI (NCI-H226 lung): > 100 µM | TGI (A549 NSCLC): > 100 µM | TGI (CCRF-CEM leukemia): > 100 µM

CCOC(=O)CC1(C(=O)OCC)c2[nH]c3ccccc3c2CCN1Cc1ccccc1 (stereo not given)
TGI (HCT-15 colon): > 100 µM | TGI (HOP-62 NSCLC): 33.6 µM | TGI (COLO 205 colon): 34.3 µM | TGI (IGROV1 ovarian): 52.9 µM | TGI (SF-539 CNS): 35.8 µM | TGI (HOP-92 NSCLC): 32.2 µM | TGI (MOLT-4 leukemia): 49.1 µM | TGI (NCI-H226 lung): 35.5 µM | TGI (A549 NSCLC): 40.3 µM | TGI (CCRF-CEM leukemia): > 100 µM

C=C1C(=O)O[C@@H]2/C=C(\C)CC/C=C(/COC(C)=O)C[C@@H](OC(C)=O)[C@@H]12
TGI (HCT-15 colon): 12.4 µM | TGI (HOP-62 NSCLC): 72.6 µM | TGI (COLO 205 colon): 14.1 µM | TGI (IGROV1 ovarian): 28.1 µM | TGI (SF-539 CNS): 36.3 µM | TGI (HOP-92 NSCLC): 21.1 µM | TGI (MOLT-4 leukemia): 16.9 µM | TGI (NCI-H226 lung): 64.1 µM | TGI (A549 NSCLC): > 100 µM | TGI (CCRF-CEM leukemia): 14.3 µM
